The source of these data is PubChem BioAssay AID330 (DTP/NCI, 2004).

The subject of this test is P388 leukemia ip, CD2F1 mice, survival T/C. Put plainly: NCI In Vivo Anticancer Drug Screen. Data for tumor model P388 Leukemia (intraperitoneal) in CD2F1 (CDF1) mice. The conditions noted are these: endpoint: median survival time, higher = longer survival. The gist of the method: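 Mice carrying the transplanted tumor received test compound or vehicle. Survival was recorded in each group, and the value is the treated-group measurement divided by that of the vehicle-treated control group.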

Setting [1] is: dose: 50.0 mg/kg/injection, schedule: Q01DX009 (ip), vehicle: Klucel (hydroxypropylcellulose) (HPC).
[2] abbreviates: dose: 100.0 mg/kg/injection, schedule: Q01DX009 (ip), vehicle: Klucel (hydroxypropylcellulose) (HPC).
Setting [3] is: dose: 200.0 mg/kg/injection, schedule: Q01DX009 (ip), vehicle: Klucel (hydroxypropylcellulose) (HPC).
The mark [4] stands for this setting: dose: 50.0 mg/kg/injection, schedule: Q01DX009 (ip), vehicle: saline with Tween-80.
The mark [5] stands for this setting: dose: 100.0 mg/kg/injection, schedule: Q01DX009 (ip), vehicle: saline with Tween-80.
Where [6] appears, read: dose: 200.0 mg/kg/injection, schedule: Q01DX009 (ip), vehicle: saline with Tween-80.
The mark [7] stands for this setting: dose: 100.0 mg/kg/injection, schedule: Q04DX003 (ip), vehicle: saline.
[8] abbreviates: dose: 200.0 mg/kg/injection, schedule: Q04DX003 (ip), vehicle: saline.
[9] abbreviates: dose: 50.0 mg/kg/injection, schedule: Q01DX005 (ip), vehicle: Klucel (hydroxypropylcellulose) (HPC).

Values joined by “and” are separate entries in the source; they are usually repeats but may differ in a detail not shown here. Identical values can stand only once. Inconclusive results and toxic doses are left out.

As to `CC(=O)N(CC(=O)Nc1ccc(S(N)(=O)=O)cc1)C(C)C`, the T/C was 100 % of control under setting [1], 99 % of control under setting [2] and 92 % of control under setting [3].

Take `CC(C)C1OCN2C(C)CCCC12` (stereo not given): the T/C by setting is: (dose: 50.0 mg/kg/injection, schedule: Q01DX005 (ip), vehicle: saline) 105 % of control; (dose: 100.0 mg/kg/injection, schedule: Q01DX005 (ip), vehicle: saline) 111 % of control; (dose: 200.0 mg/kg/injection, schedule: Q01DX005 (ip), vehicle: saline) 111 % of control.

Turning to `CS(=O)(=O)c1cc(C(=O)O)cc(NCc2ccccc2)c1Oc1ccccc1`, the T/C was 106 % of control under setting [4], 96 % of control under setting [5] and 102 % of control under setting [6].

As to `CCCCN(C(=O)c1ccccc1)c1nc2ccccc2n1C`, the T/C runs as follows: under setting [7], 95 % of control; under setting [8], 98 % of control; (dose: 400.0 mg/kg/injection, schedule: Q04DX003 (ip), vehicle: saline) 99 % of control.

For the molecule `O=C(O)C(CSC(c1ccccc1)(c1ccccc1)c1ccccc1)N=Cc1ccccc1O` (stereo not given), the T/C by setting is: (dose: 100.0 mg/kg/injection, schedule: Q04DX003 (ip), vehicle: saline with Tween-80) 168 % of control; (dose: 150.0 mg/kg/injection, schedule: Q04DX003 (ip), vehicle: saline with Tween-80) 190 % of control; (dose: 200.0 mg/kg/injection, schedule: Q04DX003 (ip), vehicle: saline with Tween-80) 122 % of control.

For `CC(=NCCN=C(C)c1ccc(Br)cc1)c1ccc(Br)cc1`, the T/C runs as follows: under setting [4], 91 % of control; under setting [5], 92 % of control; under setting [6], 91 % of control.

`O=C(OCC1OC(O)(COC(=O)c2ccccc2)C(OC(=O)c2ccccc2)C1OC(=O)c1ccccc1)c1ccccc1` (stereo not given): the T/C was 97 % of control (dose: 12.5 mg/kg/injection, schedule: Q01DX005 (ip), vehicle: Klucel (hydroxypropylcellulose) (HPC)); 98 % of control (dose: 25.0 mg/kg/injection, schedule: Q01DX005 (ip), vehicle: Klucel (hydroxypropylcellulose) (HPC)); 90 % of control and 92 % of control under setting [9].

As to `C=CC(=O)NN=C(c1ccccc1)c1ccccc1`, the T/C by setting is: (dose: 42.0 mg/kg/injection, schedule: Q01DX009 (ip), vehicle: saline with Tween-80) 98 % of control; (dose: 84.0 mg/kg/injection, schedule: Q01DX009 (ip), vehicle: saline with Tween-80) 103 % of control; (dose: 168.0 mg/kg/injection, schedule: Q01DX009 (ip), vehicle: saline with Tween-80) 100 % of control.

As for `O=C(N=C(Oc1ccccc1)Oc1ccccc1)N=C(Oc1ccccc1)Oc1ccccc1`, the T/C was 94 % of control under setting [9]; 88 % of control (dose: 100.0 mg/kg/injection, schedule: Q01DX005 (ip), vehicle: Klucel (hydroxypropylcellulose) (HPC)); 91 % of control (dose: 200.0 mg/kg/injection, schedule: Q01DX005 (ip), vehicle: Klucel (hydroxypropylcellulose) (HPC)).

On to `CN1C2CCC1C(C(=O)O)C(O)C2` (stereo not given), for which the T/C (dose: 100.0 mg/kg/injection, schedule: Q04DX002 (ip), vehicle: saline with Tween-80) is 101 % of control; the T/C (dose: 200.0 mg/kg/injection, schedule: Q04DX002 (ip), vehicle: saline with Tween-80) was 96 % of control; the T/C (dose: 400.0 mg/kg/injection, schedule: Q04DX002 (ip), vehicle: saline with Tween-80) was 92 % of control.

Turning to `CC1(O)Oc2c(cc(C(C)(C)C)cc2C(C)(C)C)C1=O` (stereo not given), the T/C runs as follows: (dose: 6.25 mg/kg/injection, schedule: Q01DX009 (ip), vehicle: saline with Tween-80) 99 % of control; (dose: 12.5 mg/kg/injection, schedule: Q01DX009 (ip), vehicle: saline with Tween-80) 102 % of control; (dose: 25.0 mg/kg/injection, schedule: Q01DX009 (ip), vehicle: saline with Tween-80) 105 % of control.

Take `C=C(c1ccc2nc(NC(=O)OC)[nH]c2c1)c1cccs1`: the T/C was 108 % of control (dose: 25.0 mg/kg/injection, schedule: Q01DX005 (ip), vehicle: saline with Tween-80); 99 % of control (dose: 50.0 mg/kg/injection, schedule: Q01DX005 (ip), vehicle: saline with Tween-80); 98 % of control (dose: 100.0 mg/kg/injection, schedule: Q01DX005 (ip), vehicle: saline with Tween-80); 100 % of control (dose: 200.0 mg/kg/injection, schedule: Q01DX005 (ip), vehicle: saline with Tween-80).

In the case of `CCOC(=O)C1=NN(c2ccccc2)C(C(N)=O)C1` (stereo not given), the T/C (dose: 60.0 mg/kg/injection, schedule: Q01DX005 (ip), vehicle: saline with Tween-80) was 100 % of control; the T/C (dose: 120.0 mg/kg/injection, schedule: Q01DX005 (ip), vehicle: saline with Tween-80) was 101 % of control; the T/C (dose: 240.0 mg/kg/injection, schedule: Q01DX005 (ip), vehicle: saline with Tween-80) was 101 % of control.

As for `CCOc1c(OC)cc(-c2n[nH]c(=S)o2)cc1OC`, the T/C by setting is: (dose: 100.0 mg/kg/injection, schedule: Q04DX003 (ip), vehicle: Klucel (hydroxypropylcellulose) (HPC)) 101 % of control; (dose: 200.0 mg/kg/injection, schedule: Q04DX003 (ip), vehicle: Klucel (hydroxypropylcellulose) (HPC)) 95 % of control; (dose: 400.0 mg/kg/injection, schedule: Q04DX003 (ip), vehicle: Klucel (hydroxypropylcellulose) (HPC)) 100 % of control.

As to `COc1cccc2c1C(=O)c1c(O)c3c(c(O)c1C2=O)C[C@@](O)(C(C)O)C[C@@H]3OC1CC(N)C(O)C(C)O1` (stereo not given in full), the T/C reads like this: (dose: 1.08 mg/kg/injection, schedule: Q01DX009 (ip), vehicle: saline) 168 % of control; (dose: 1.8 mg/kg/injection, schedule: Q01DX009 (ip), vehicle: saline) 163 % of control and 172 % of control; (dose: 3.0 mg/kg/injection, schedule: Q01DX009 (ip), vehicle: saline) 159 % of control and 173 % of control; (dose: 3.0 mg/kg/injection, schedule: Q04DX003 (ip), vehicle: saline) 150 % of control; (dose: 5.0 mg/kg/injection, schedule: Q01DX009 (ip), vehicle: saline) 173 % of control and 195 % of control; (dose: 5.0 mg/kg/injection, schedule: Q04DX003 (ip), vehicle: saline) 154 % of control. Moreover, the T/C is 154 % of control (dose: 8.0 mg/kg/injection, schedule: Q01DX001 (ip), vehicle: saline); 150 % of control (dose: 8.0 mg/kg/injection, schedule: Q01DX009 (ip), vehicle: saline); 163 % of control (dose: 8.0 mg/kg/injection, schedule: Q04DX003 (ip), vehicle: saline); 90 % of control (dose: 13.3 mg/kg/injection, schedule: Q01DX009 (ip), vehicle: saline); 172 % of control (dose: 13.3 mg/kg/injection, schedule: Q04DX003 (ip), vehicle: saline); 181 % of control (dose: 22.2 mg/kg/injection, schedule: Q01DX001 (ip), vehicle: saline). Further, the T/C is 163 % of control (dose: 37.0 mg/kg/injection, schedule: Q01DX001 (ip), vehicle: saline); 100 % of control (dose: 37.0 mg/kg/injection, schedule: Q04DX003 (ip), vehicle: saline); 90 % of control (dose: 61.7 mg/kg/injection, schedule: Q01DX001 (ip), vehicle: saline).

With `O=C(O)c1ccc(N=Cc2ccc3c(c2)OCO3)cc1`, the T/C by setting is: (dose: 25.0 mg/kg/injection, schedule: Q04DX003 (ip), vehicle: saline) 100 % of control; (dose: 50.0 mg/kg/injection, schedule: Q04DX003 (ip), vehicle: saline) 102 % of control; under setting [7], 96 % of control; under setting [8], 94 % of control.

As to `CCCc1c(-n2[nH]c(=O)n(-c3ccccc3)c2=O)c(=O)n(C)c(=O)n1C`, the T/C runs as follows: under setting [1], 110 % of control; under setting [2], 105 % of control; under setting [3], 95 % of control.

Turning to `COc1ccc2cc1Oc1ccc(cc1)C[C@H]1c3cc(c(OC)cc3CCN1C)Oc1c(O)c(OC)cc3c1[C@H](C2)N(C)CC3`, the T/C runs as follows: (dose: 25.0 mg/kg/injection, schedule: Q01DX009 (ip), vehicle: saline) 106 % of control; (dose: 50.0 mg/kg/injection, schedule: Q01DX009 (ip), vehicle: saline) 100 % of control; (dose: 50.0 mg/kg/injection, schedule: Q01DX009 (ip), vehicle: suspension in saline) 103 % of control; (dose: 100.0 mg/kg/injection, schedule: Q01DX009 (ip), vehicle: saline) 103 % of control; (dose: 100.0 mg/kg/injection, schedule: Q01DX009 (ip), vehicle: suspension in saline) 102 % of control.
